The series in a line: Tissue distribution in rat. The class given is in vivo. Particulars: for Kp at 3 days: 100 mg/kg/day PO 3 days.

Like-named read-outs stand apart in the source and are kept apart here.

Take `O=C1CC[C@H](N2Cc3cc(N4CCN(CC5CCN(c6ccc([C@@H]7c8ccc(O)cc8CC[C@@H]7c7ccccc7)cc6)CC5)CC4)ccc3C2=O)C(=O)N1` [Compound A, (S)-3-(5-(4-((1-(4-((1R,2S)-6-hydroxy-2-phenyl-1,2,3,4-tetrahydronaphthalen-1-yl)phenyl)piperidin-4-yl)methyl)piperazin-1-yl)-1-oxoisoindolin-2-yl)piperidine-2,6-dione]: the “tissue accumulation upon repeat-dose” value is recorded as “no signs of tissue accumulation”. Further, the Kp at 3 days (brain, read-out: tissue plasma ratio, brain) was no more than 0.1. In addition, the “blood brain barrier crossing” value (in vivo) was “does not readily cross the blood brain barrier”. For the same compound, the Kp at 3 days (lung, read-out: tissue plasma ratio, lung) was in the range of 5.6 to 13.9.
